Assay results: patent publication US20070249725A1, “Pharmaceutical formulations of sympathetic antagonist for the treatment of chronic muscle pain” (priority 2006, published 2007)
Counter-ions that a name gives are not always drawn.

Experiment: Adverse events in subjects treated by trigger point injection (Example 1)
Type: in vivo, human
Description: A total of 326 male and female subjects, approximately 15 to 85 years old with pain of 4-72 month duration were treated with various doses of phenoxybenzamine. If a potential subject had pain that was clearly muscular and clearly not due to arthritis, nerve root compression or other extramuscular cause, the subject was considered a candidate for phenoxybenzamine hydrochloride injection. Trigger points were identified by palpation. A monopolar EMG needle was then inserted into the trigger point. Another monopolar EMG needle was inserted into a nearby nontender fibers of the same muscle. […] The treatment was repeated in up to 10-12 trigger points per treatment session. Subjects could return for up to 6 treatment sessions, depending on the extent of their pain. The initial treatment was with a dose of 25 mg of phenoxybenzamine hydrochloride in an injection volume of 2 ml. […] For 318 subjects, data were available for analysis for the doses of phenoxybenzamine hydrochloride used, efficacy and incidence of serious adverse events.
The frequencies of other adverse events occurring in the first 199 subjects treated, including the first 87 subjects treated with the 3 mg dose, are given in the table below. Results with an additional 131 subjects treated with the 3 mg dose have been similar.

[1] = 10-25 mg, single injection, N 23

CC(COc1ccccc1)N(CCCl)Cc1ccccc1 (stereo not shown) [Phenoxybenzamine Hydrochloride, phenoxybenzamine hydrochloride]
Burning, number of subjects [1]: 1 | Cold sensation, % of subjects [1]: (4%) | Cold sensation, number of subjects [1]: 1 | Diaphoresis, % of subjects [1]: (0%) | Diarrhea, % of subjects [1]: (0%) | Dizziness, % of subjects [1]: (0%) | Dry mouth, % of subjects [1]: (0%) | Dysphagia, % of subjects [1]: (4%) | Dysphagia, number of subjects [1]: 1 | Dyspnea, % of subjects [1]: (0%) | Epistaxis, % of subjects [1]: (4%) | Epistaxis, number of subjects [1]: 1 | Fatigue, % of subjects [1]: (4%) | Fatigue, number of subjects [1]: 1 | Fever, % of subjects [1]: (0%) | Flu syndrome, % of subjects [1]: (0%) | Hair disorder, % of subjects [1]: (0%) | Headache, % of subjects [1]: (0%) | Hypesthesia, % of subjects [1]: (9%) | Hypesthesia, number of subjects [1]: 2 | Injection site drainage, % of subjects [1]: (0%) | Injection site soreness, % of subjects [1]: (35%) | Injection site soreness, number of subjects [1]: 8 | Injection site swelling, % of subjects [1]: 26% | Injection site swelling, number of subjects [1]: 6 | Lethargy, % of subjects [1]: (0%) | Lightheadedness, % of subjects [1]: (4%) | Lightheadedness, number of subjects [1]: 1 | Nasal disorder, % of subjects [1]: (9%) | Nasal disorder, number of subjects [1]: 2 | Nausea, % of subjects [1]: (0%) | Pain, % of subjects [1]: (26%) | Pain, number of subjects [1]: 6 | Palpitations, % of subjects [1]: (0%) | Paresthesia, % of subjects [1]: (0%) | Pharyngitis, % of subjects [1]: (0%) | Pruritis, % of subjects [1]: (0%) | Rash, % of subjects [1]: 4% | Rash, number of subjects [1]: 1 | Stiffness, % of subjects [1]: (13%) | Stiffness, number of subjects [1]: 3 | Swelling, % of subjects [1]: (0%) | Syncope, % of subjects [1]: (0%) | Tachycardia, % of subjects [1]: (4%) | Tachycardia, number of subjects [1]: 1 | Taste disorder, % of subjects [1]: (4%) | Taste disorder, number of subjects [1]: 1 | Tremor, % of subjects [1]: (0%) | Vomiting, % of subjects [1]: (0%) | Bruising at injection site, % of subjects (Total of all doses, N 199): (6%) | Bruising at injection site, number of subjects (Total of all doses, N 199): 11 | Burning, % of subjects (Total of all doses, N 199): (2%) | Burning, number of subjects (Total of all doses, N 199): 4 | Cold sensation, % of subjects (Total of all doses, N 199): (1%) | Cold sensation, number of subjects (Total of all doses, N 199): 2 | Diaphoresis, % of subjects (Total of all doses, N 199): (0%) | Diaphoresis, number of subjects (Total of all doses, N 199): 1 | Diarrhea, % of subjects (Total of all doses, N 199): (1%) | Diarrhea, number of subjects (Total of all doses, N 199): 2 | Dizziness, % of subjects (Total of all doses, N 199): (11%) | Dizziness, number of subjects (Total of all doses, N 199): 21 | Dry mouth, % of subjects (Total of all doses, N 199): (0%) | Dry mouth, number of subjects (Total of all doses, N 199): 1 | Dysphagia, % of subjects (Total of all doses, N 199): (0%) | Dysphagia, number of subjects (Total of all doses, N 199): 1 | Dyspnea, % of subjects (Total of all doses, N 199): (2%) | Dyspnea, number of subjects (Total of all doses, N 199): 4 | Epistaxis, % of subjects (Total of all doses, N 199): (0%) | Epistaxis, number of subjects (Total of all doses, N 199): 1 | Fatigue, % of subjects (Total of all doses, N 199): (4%) | Fatigue, number of subjects (Total of all doses, N 199): 8 | Fever, % of subjects (Total of all doses, N 199): (0%) | Fever, number of subjects (Total of all doses, N 199): 1 | Flu syndrome, % of subjects (Total of all doses, N 199): (1%) | Flu syndrome, number of subjects (Total of all doses, N 199): 2 | Hair disorder, % of subjects (Total of all doses, N 199): (0%) | Hair disorder, number of subjects (Total of all doses, N 199): 1 | Headache, % of subjects (Total of all doses, N 199): (6%) | Headache, number of subjects (Total of all doses, N 199): 12 | Hypesthesia, % of subjects (Total of all doses, N 199): (3%) | Hypesthesia, number of subjects (Total of all doses, N 199): 6 | Injection site drainage, % of subjects (Total of all doses, N 199): (1%) | Injection site drainage, number of subjects (Total of all doses, N 199): 2 | Injection site soreness, % of subjects (Total of all doses, N 199): (30%) | Injection site soreness, number of subjects (Total of all doses, N 199): 59 | Injection site swelling, % of subjects (Total of all doses, N 199): 33% | Injection site swelling, number of subjects (Total of all doses, N 199): 66 | Lethargy, % of subjects (Total of all doses, N 199): (0%) | Lethargy, number of subjects (Total of all doses, N 199): 1 | Lightheadedness, % of subjects (Total of all doses, N 199): (7%) | Lightheadedness, number of subjects (Total of all doses, N 199): 13 | Nasal disorder, % of subjects (Total of all doses, N 199): (2%) | Nasal disorder, number of subjects (Total of all doses, N 199): 4 | Nausea, % of subjects (Total of all doses, N 199): (9%) | Nausea, number of subjects (Total of all doses, N 199): 18 | Pain, % of subjects (Total of all doses, N 199): (5%) | Pain, number of subjects (Total of all doses, N 199): 10 | Palpitations, % of subjects (Total of all doses, N 199): (0%) | Palpitations, number of subjects (Total of all doses, N 199): 1 | Paresthesia, % of subjects (Total of all doses, N 199): (2%) | Paresthesia, number of subjects (Total of all doses, N 199): 3 | Pharyngitis, % of subjects (Total of all doses, N 199): (0%) | Pharyngitis, number of subjects (Total of all doses, N 199): 1 | Pruritis, % of subjects (Total of all doses, N 199): (0%) | Pruritis, number of subjects (Total of all doses, N 199): 1 | Rash, % of subjects (Total of all doses, N 199): 2% | Rash, number of subjects (Total of all doses, N 199): 3 | Stiffness, % of subjects (Total of all doses, N 199): (3%) | Stiffness, number of subjects (Total of all doses, N 199): 6 | Swelling, % of subjects (Total of all doses, N 199): (1%) | Swelling, number of subjects (Total of all doses, N 199): 2 | Syncope, % of subjects (Total of all doses, N 199): (3%) | Syncope, number of subjects (Total of all doses, N 199): 6 | Tachycardia, % of subjects (Total of all doses, N 199): (0%) | Tachycardia, number of subjects (Total of all doses, N 199): 1 | Taste disorder, % of subjects (Total of all doses, N 199): (2%) | Taste disorder, number of subjects (Total of all doses, N 199): 4 | Tremor, % of subjects (Total of all doses, N 199): (1%) | Tremor, number of subjects (Total of all doses, N 199): 2 | Vomiting, % of subjects (Total of all doses, N 199): (4%) | Vomiting, number of subjects (Total of all doses, N 199): 7
